Test results from article PMC5740381 (Antimicrobial Agents and Chemotherapy, 2017).
Like-named read-outs stand apart in the source and are kept apart here.

Columns and labels:
[1] = system: HCV genotype 1 to 6 NS3/4A proteases; experiment: HCV NS3/4A protease biochemical assay, all genotypes; design: species or system Hepatitis C virus; settings: read-out: IC50, range over proteases
Excerpt: . […] Genes encoding NS3/4A were derived from laboratory strains 1a-H77 (GenBank accession number NC_004102) and 1b-N (GenBank accession number AF139594) or from clinical samples from patients infected with genotype 2a, 2b, 3a, or 4a. All patients provided written informed consent. Clinical studies were designed according to Good Clinical Practice guidelines, the Declaration of Helsinki, and applicable local regulations, with independent ethics committee or institutional review board approval for all study sites. The genotype 5a NS3/4A gene sequence was synthetically constructed based on the sequence of the clinical isolate SA13 (GenBank accession number AF064490) ([48]), whereas the genotype 6a NS3/4A gene sequence was synthetically constructed based on a consensus sequence derived from the alignment of 15 genotype 6a sequences available in GenBank. The NS3/4A genes were each cloned into the protein expression vector pET14b (Novagen, Madison, WI), and a clone with an NS3/4A protease sequence that matched the consensus sequence for each sample was subsequently selected for protein expression and purification. Protease activity was measured by continuous monitoring of the fluorescence change associated with the cleavage of a fluorogenic depsipeptide (EDANS/DABCYL) substrate using a purified recombinant HCV NS3/4A protease as described previously ([49]). […]

[2] = system: HCV replicons containing proteases from 40 samples, genotypes 1 to 5; experiment: Transient replicon assay with patient proteases, all 40 samples; assay type: cell-based; settings: Hepatitis C virus, 40 clinical samples
Excerpt: […]. Each of the NS3 gene sequences from genotypes 1, 2, and 4, with the exception of two genotype 2b sequences, was derived from serum or plasma from an HCV-infected patient by bulk PCR amplification, producing a population of sequences representing the viral quasispecies. Two genotype 2b sequences were synthesized based on the consensus sequences of the respective samples. One genotype 3a sequence was synthesized based on a consensus sequence from the sequences available in the Los Alamos HCV sequence database, and another genotype 3a sequence was a clonal sequence derived from a patient sample. The genotype 5a sequence (strain SA13) was synthesized based on the published sequence of the HCV isolate ([48]).
Transient replicons containing NS3 from clinical samples from HCV genotype 1a- and 1b-infected patients were described previously ([28]). For the transient replicons containing NS3/4A from samples from genotype 3a-infected patients, the first 251 amino acids of NS3 and the region encoding NS4A amino acids 21 to 32 (numbered relative to the NS4A coding region) from these HCV samples were cloned to replace the corresponding residues from the backbone of a genotype 1b Con1 shuttle vector. […]

[3] = system: HCV genotype 3a replicon cells; experiment: Drug-resistant colony selection in replicon cells; assay type: cell-based, Hepatitis C virus
Excerpt: (§1) . After approximately 3 weeks of treatment, the surviving replicon colonies in one plate for each selection condition were stained with crystal violet and counted, whereas approximately 20 to 30 colonies in a replicate plate or most of the colonies, if less than 20 colonies survived the selection, were picked and further expanded for genotyping. The expanded colonies were lysed in CellsDirect lysis buffer (Invitrogen, MA), and the NS3-coding region from each colony was amplified by reverse transcription-PCR and sequenced. For genotype 1a, 1b, 2a, and 5a colonies, the full-length NS3 sequence was determined, whereas for colonies of the chimeric replicon containing the N-terminal region of NS3 from genotype 2b, 3a, 4a, or 6a, the sequence encoding the NS3 N-terminal region was determined. We defined a substitution in a replicon to be an amino acid difference in a sequence from a posttreatment sample relative to the sequence of the corresponding untreated sample. For resistance selection studies, NS3 substitutions detected at the following amino acid positions associated with resistance to the HCV PI class in >2 colonies in each replicon selection are reported: 36, 43, 54, 55, 56, 80, 122, 155, 156, and 168. In addition, substitutions detected at other amino acid positions in the NS3 protease domain in >2 colonies in each replicon selection are also reported.

[4] = system: HCV genotype 6a replicon cells; experiment: Drug-resistant colony selection in replicon cells; assay type: cell-based, Hepatitis C virus
Excerpt: as §1

HCV genotype 5a replicon = experiment: Transient replicon assay with engineered substitutions; assay type: cell-based, Hepatitis C virus
Description: (§2) Mutagenesis was performed using a Change-IT multiple-mutation site-directed mutagenesis kit (USB, Cleveland, OH) or by cloning a synthesized DNA fragment encoding the amino acid substitution(s). The genotype 1a and 1b replicon shuttle vectors used for the introduction of the substitutions of interest in the NS3, NS5A, or NS5B gene for transient-transfection assays have been described previously ([28], [33]). The replicon shuttle vectors used for the introduction of substitutions in NS3 genes from other genotypes were similar to the stable replicon cell line constructs described above, except for the absence of the neo gene. After mutagenesis, the plasmids were linearized and RNA was transcribed and then used to transfect Huh-7 cells. Inhibition of HCV replication by the HCV inhibitors was measured by luciferase assay, as described above. Replication efficiency was calculated as a percentage of wild-type replication, as described previously ([28]).

[5] = system: HCV genotype 1 to 6 replicons containing NS3 substitutions; experiment: Transient replicon assay with engineered substitutions, summary over genotypes; assay type: cell-based, Hepatitis C virus
Description: as §2

Molecule `CC(C)(C)[C@@H]1NC(=O)O[C@@H]2CCC[C@H]2OC/C=C/C(F)(F)c2nc3ccccc3nc2O[C@@H]2C[C@@H](C(=O)N[C@]3(C(=O)NS(=O)(=O)C4(C)CC4)C[C@H]3C(F)F)N(C2)C1=O` [Glecaprevir, (3aR,7S,10S,12R,21E,24aR)-7-tert-butyl-N-[(1R,2R)-2-(difluoromethyl)-1-{[(1-methylcyclopropyl)sulfonyl]carbamoyl}cyclopropyl]-20,20-difluoro-5,8-dioxo-2,3,3a,5,6,7,8,11,12,20,23,24a-dodecahydro-1H,10H-9,12-methanocyclopenta[18,19][1,10,17,3,6]trioxadiazacyclononadecino[11,12-b]quinoxaline-10-carboxamide] has an IC50 [1] of 3.5 to 11.3 nM, an EC50 ([2]; read-out: EC50 range, overall) of 0.05 to 3.8 nM and an EC50 ([2]; read-out: Overall median EC50) of 0.3 nM. It also gave a Colony survival ([3]; 10× EC50, 1 × 10^4 input cells) of 0.1%, a Colony survival ([3]; 100× EC50) of 0.0003% and a Colony survival ([4]; 10× EC50) of 0.018%. It also gave a Colony survival ([4]; 100× EC50) of 0%.

With `C=C[C@@H]1C[C@]1(NC(=O)[C@@H]1C[C@@H]2CN1C(=O)[C@H](C(C)(C)C)NC(=O)O[C@@H]1C[C@H]1CCCCCc1nc3ccc(OC)cc3nc1O2)C(=O)NS(=O)(=O)C1CC1` [Grazoprevir] the EC50 (HCV genotype 5a replicon; 5a wild type, transient transfection, read-out: Mean EC50 ± SD) was 0.06 ± 0.02 nM.

In the case of `Cc1cnc(C(=O)N[C@H]2CCCCC/C=C\[C@@H]3C[C@@]3(C(=O)NS(=O)(=O)C3CC3)NC(=O)[C@@H]3C[C@@H](Oc4nc5ccccc5c5ccccc45)CN3C2=O)cn1` [Paritaprevir], the “Fold decrease in susceptibility” value ([5]; R155 substitutions in genotypes 1, 3 and 4) is reported as 5.2- to 59 fold, the “Fold reduction in antiviral activity, range” value ([5]; replicons with A156 substitutions in genotypes 1 to 4) is reported as 1.7- to 155 fold and the Fold change (HCV genotype 5a replicon; 5a NS3 D168E vs wild-type replicon) is reported as 23 fold. It also gave a Fold change (HCV genotype 5a replicon; 5a NS3 D168H vs wild-type replicon) of 558 fold.
